Results reported in patent publication US6022969A, “Compositions and methods for treating mast-cell mediated conditions” (AXYS Pharmaceuticals, Inc., priority 1995, dated 2000).

These molecules were tested against tryptase (assay: In vitro tryptase inhibition assay (hydrolysis of tosyl-Gly-Pro-Lys-p-nitroanilide)). Conditions: tosyl-Gly-Pro-Lys-p-nitroanilide 0.5 mM, pH 8.2, 1 h pre-incubation, room temperature.
Type: biochemical, human
Method: The compounds to be assayed (approximately 1 mg) were dissolved in 200 μL dimethylsulfoxide (DMSO) and diluted 1:10 into buffer containing 50 millimolar (mM) Tris-HCl (pH 8.2), 100 mM sodium chloride, and 0.05% polyoxyethylenesorbitan monolaurate (Tween-20®, available from Sigma, St. Louis, Mo.). Seven additional threefold dilutions were made from the initial dilution into the same buffer supplemented with 10% DMSO. Aliquots (50 microliters, μL) from each of the eight dilutions in the series were transferred to individual wells in a 96-well U-bottom microtiter plate. 25 μL of a stock solution of tryptase was added to each well and the samples were mixed and incubated for one hour at room temperature (tryptase was purified from human lung and skin tissue preparations, HMC-1 (human mast cell line) and also obtained from commercial sources (ICN Biomedicals, Irvine, Calif.; Athens Research & Technology, Athens, Ga.)). […] The tryptase solution was prepared by placing 60 μg/mL of tryptase into solution with 10 mM MES (2-[N-Morpholino]ethane sulfonic acid) containing 2 mM CaCl2, 20% glycerol and 50 μg/mL heparin. The enzyme reaction was initiated with the addition of the synthetic tripeptide substrate, tosyl-Gly-Pro-Lys-p-nitroanilide (available from Sigma, 25 μL; 0.5 mM final concentration).
However, Ki ' varies with the enzyme concentration used in the enzyme assay. […] The y-intercept of a replot of IC50 (ordinate) versus tryptase concentration (abscissa) produces a value for Ki '.
The inhibition constants (Ki ', micromolar (μM)) were determined for the compounds of the present invention.
`NCC12CCC(CNC(=O)N3CCN(C(=O)O[C@H]4CCC[C@@H](OC(=O)N5CCN(C(=O)NCC67CCC(CN)(CC6)CC7)CC5)CCC4)CC3)(CC1)CC2` (relative stereo) [Compound 15, cis-1,5-cyclooctylene[4-(4-aminomethylbicyclo[2.2.2]oct-1-ylmethylcarbamoyl)-1-piperazinecarboxylate]] showed a Ki of 302 nM.
Molecule `N=C(N)Nc1ccc(CNC(=O)CNC(=O)OC[C@H]2CC[C@H](COC(=O)NCC(=O)NCc3ccc(NC(=N)N)cc3)CC2)cc1` [Compound 1, trans-1,4-Cyclohexylenedimethylene bis(4-guanidinobenzylcarbamoylmethylaminocarboxylate)] has a Ki of 4 nM.
Molecule `N=C(N)Nc1ccc(CNC(=O)CNC(=O)O[C@H]2CCC[C@@H](OC(=O)NCC(=O)NCc3ccc(NC(=N)N)cc3)CCC2)cc1` [Compound 2, cis-1,5-Cyclooctylene bis(4-guanidinobenzylcarbamoylmethylaminocarboxylate)] has a Ki of 2 nM.
With `NC[C@H]1CC[C@H](CNC(=O)N2CCN(C(=O)O[C@H]3CCC[C@@H](OC(=O)N4CCN(C(=O)NC[C@H]5CC[C@H](CN)CC5)CC4)CCC3)CC2)CC1` [Compound 4, cis-1,5-Cyclooctylene bis[4-((trans-4-aminomethylcyclohexylenemethylene)carbamoyl)-1-piperazinecarboxylate]] the Ki was 15.8 nM.
Work on `N=C(N)N1CCC(CCC(=O)N2CCN(C(=O)O[C@H]3CCC[C@@H](OC(=O)N4CCN(C(=O)CCC5CCN(C(=N)N)CC5)CC4)CCC3)CC2)CC1` [Compound 5, cis-1,5-cyclooctylene bis{4-[3-(1-amidinopiperid-4-yl)propionoyl]-1-piperazinecarboxylate}] yielded a Ki of 2 nM.
In the case of `N=C(N)c1ccc(CCC(=O)N2CCN(C(=O)O[C@H]3CCC[C@@H](OC(=O)N4CCN(C(=O)CCc5ccc(C(=N)N)cc5)CC4)CCC3)CC2)cc1` [Compound 6, cis-1,5-cyclooctylene bis{4-[3(4-amidinophenyl)propionoyl]-1-piperazinecarboxylate}], the Ki is reported as 0.37 nM.
`N=C(N)N1CCC(CC(=O)N2CCN(C(=O)O[C@H]3CCC[C@@H](OC(=O)N4CCN(C(=O)CC5CCN(C(=N)N)CC5)CC4)CCC3)CC2)CC1` [Compound 7, cis-1,5-cyclooctylene bis{[4-(1-amidinopiperid-4-ylacetyl)-1-piperazinecarboxylate]}] was tested, and the Ki was 5 nM.
With `N=C(N)N1CCC(CCNC(=O)N2CCN(C(=O)O[C@H]3CCC[C@@H](OC(=O)N4CCN(C(=O)NCCC5CCN(C(=N)N)CC5)CC4)CCC3)CC2)CC1` [Compound 8, cis-1,5-cyclooctylene bis{4-[2-(1-amidinopiperid-4-yl)ethylcarbamoyl]-1-piperazinecarboxylate}] the Ki was 30 nM.
For `NC[C@H]1CC[C@H](C(=O)N2CCN(C(=O)O[C@H]3CCC[C@@H](OC(=O)N4CCN(C(=O)[C@H]5CC[C@H](CN)CC5)CC4)CCC3)CC2)CC1` [Compound 9, cis-1,5-cyclooctylene bis[4-(trans-4-aminomethylcyclohexylcarbonyl)-1-piperazinecarboxylate]], the Ki was 493 nM.
`N=C(N)Nc1ccc(CC(=O)N2CCN(C(=O)O[C@H]3CCC[C@@H](OC(=O)N4CCN(C(=O)Cc5ccc(NC(=N)N)cc5)CC4)CCC3)CC2)cc1` [Compound 10, cis-1,5-cyclooctylene bis[4-(4-guanidinophenylacetyl)-1-piperazinecarboxylate]] showed a Ki of 0.47 nM.
For `N=C(N)Nc1ccc(CCC(=O)N2CCN(C(=O)O[C@H]3CCC[C@@H](OC(=O)N4CCN(C(=O)CCc5ccc(NC(=N)N)cc5)CC4)CCC3)CC2)cc1` [Compound 11, cis-1,5-cyclooctylene bis[4-[3-(4-guanidinophenyl)propionyl]-1-piperazinecarboxylate}], the Ki was 207 nM.
With `NC[C@H]1CC[C@H](CNC(=O)N2CCCN(C(=O)O[C@H]3CCC[C@@H](OC(=O)N4CCCN(C(=O)NC[C@H]5CC[C@H](CN)CC5)CC4)CCC3)CC2)CC1` [Compound 12, cis-1,5-cyclooctylene bis[4-(trans-4-aminomethylcyclohexylmethylcarbamoyl)-1-(perhydro-7H-1,4-diazepine)carboxylate]] the Ki was 260 nM.
`NCc1ccc(CNC(=O)N2CCN(C(=O)O[C@H]3CCC[C@@H](OC(=O)N4CCN(C(=O)NCc5ccc(CN)cc5)CC4)CCC3)CC2)cc1` [Compound 13, cis-1,5-cyclooctylene bis[4-(4-aminomethylbenzylcarbamoyl)-1-piperazinecarboxylate]] showed a Ki of 0.13 nM.
Molecule `NCCc1ccc(CNC(=O)N2CCN(C(=O)O[C@H]3CCC[C@@H](OC(=O)N4CCN(C(=O)NCc5ccc(CCN)cc5)CC4)CCC3)CC2)cc1` [Compound 14, cis-1,5-cyclooctylene bis{4-[4-(2-aminoethyl)benzylcarbamoyl]-1-piperazinecarboxylate]] has a Ki of 1300 nM.
`NCCc1ccc(CC(=O)N2CCN(C(=O)O[C@H]3CCC[C@@H](OC(=O)N4CCN(C(=O)Cc5ccc(CCN)cc5)CC4)CCC3)CC2)cc1` [Compound 16] was tested, and the Ki was 1.5 nM.
For `NCCc1ccc(C(=O)N2CCN(C(=O)O[C@H]3CCC[C@@H](OC(=O)N4CCN(C(=O)c5ccc(CCN)cc5)CC4)CCC3)CC2)cc1` [Compound 17, cis-1,5-cyclooctylene bis{4-[4-(2-aminoethyl)benzoyl]-1-piperazinecarboxylate]], the Ki was 4.9 nM.
In the case of `CC(CN)c1ccc(C(=O)N2CCN(C(=O)O[C@H]3CCC[C@@H](OC(=O)N4CCN(C(=O)c5ccc(C(C)CN)cc5)CC4)CCC3)CC2)cc1` (stereo partly drawn) [Compound 18, cis-1,5-cyclooctylene bis{4-[4-(1-aminoprop-2-yl)benzoyl]-1-piperazinecarboxylate}], the Ki is reported as 713 nM.
Molecule `NCCC1CCN(C(=O)N2CCN(C(=O)O[C@H]3CCC[C@@H](OC(=O)N4CCN(C(=O)N5CCC(CCN)CC5)CC4)CCC3)CC2)CC1` [Compound 19] has a Ki of 1510 nM.
`NCC[C@H]1CC[C@H](CC(=O)N2CCN(C(=O)O[C@H]3CCC[C@@H](OC(=O)N4CCN(C(=O)C[C@H]5CC[C@H](CCN)CC5)CC4)CCC3)CC2)CC1` [Compound 20, cis-1,5-cyclooctylene bis{4-[trans-4-(2-aminoethyl)cyclohexylacetyl]-1-piperazinecarboxylate}] showed a Ki of 0.81 nM.
`NCCC1CCC(C(=O)N2CCN(C(=O)O[C@H]3CCC[C@@H](OC(=O)N4CCN(C(=O)C5CCC(CCN)CC5)CC4)CCC3)CC2)CC1` (stereo partly drawn) [Compound 22, cis-1,5-cyclooctylene bis{4-[4-(2-aminoethyl)cyclohexylcarbonyl]-1-piperazinecarboxylate]] gave a Ki of 9 nM.
`NCC1CCN(C(=O)NCC2CCN(C(=O)OC[C@H]3CC[C@H](COC(=O)N4CCC(CNC(=O)N5CCC(CN)CC5)CC4)CC3)CC2)CC1` [Compound 23, trans-1,4-cyclohexylenedimethylene bis{4-[4(aminomethyl)piperid-1-ylcarbonylaminomethyl]-1-piperidinecarboxylate}] gave a Ki of 119 nM.
`N=C(N)c1ccc(CC(=O)N2CCN(C(=O)O[C@H]3CCC[C@@H](OC(=O)N4CCN(C(=O)Cc5ccc(C(=N)N)cc5)CC4)CCC3)CC2)cc1` [Compound 24, cis-1,5-cyclooctylene bis[4-(4-amidinophenylacetyl)-1-piperazinecarboxylate)] was tested, and the Ki was 0.16 nM.
Work on `NCC1CCN(C(=O)NCCCCNC(=O)O[C@H]2CCC[C@@H](OC(=O)NCCCCNC(=O)N3CCC(CN)CC3)CCC2)CC1` [Compound 25, cis-1,5-cyclooctylene bis{4-[4-(aminomethyl)piperid-1-ylcarbonylamino]butylaminocarboxylate}] yielded a Ki of 734 nM.
